Assay results: patent US20250179078A1, “INHIBITORS OF NLRP3” (PTC THERAPEUTICS, INC., priority 2022, published 2025)
pIC50: −log10 of the molar value.

These compounds were tested against T1, NLRP3 (Homo sapiens, UniProt Q96P20) (assay: IL-1β Secretion Assay (NLRP3-dependent IL1β secretion in THP1 cells)). Conditions: PMA-differentiated THP-1 cells; compounds incubated 20 h; 2.5 μM Nigericin 3 h; HTRF IL-1β readout; read-out: IC50 IL-1β Inhibition.
T1 construct: host or cells: THP-1 cells differentiated with PMA
T1 sequence (Q96P20 whole entry): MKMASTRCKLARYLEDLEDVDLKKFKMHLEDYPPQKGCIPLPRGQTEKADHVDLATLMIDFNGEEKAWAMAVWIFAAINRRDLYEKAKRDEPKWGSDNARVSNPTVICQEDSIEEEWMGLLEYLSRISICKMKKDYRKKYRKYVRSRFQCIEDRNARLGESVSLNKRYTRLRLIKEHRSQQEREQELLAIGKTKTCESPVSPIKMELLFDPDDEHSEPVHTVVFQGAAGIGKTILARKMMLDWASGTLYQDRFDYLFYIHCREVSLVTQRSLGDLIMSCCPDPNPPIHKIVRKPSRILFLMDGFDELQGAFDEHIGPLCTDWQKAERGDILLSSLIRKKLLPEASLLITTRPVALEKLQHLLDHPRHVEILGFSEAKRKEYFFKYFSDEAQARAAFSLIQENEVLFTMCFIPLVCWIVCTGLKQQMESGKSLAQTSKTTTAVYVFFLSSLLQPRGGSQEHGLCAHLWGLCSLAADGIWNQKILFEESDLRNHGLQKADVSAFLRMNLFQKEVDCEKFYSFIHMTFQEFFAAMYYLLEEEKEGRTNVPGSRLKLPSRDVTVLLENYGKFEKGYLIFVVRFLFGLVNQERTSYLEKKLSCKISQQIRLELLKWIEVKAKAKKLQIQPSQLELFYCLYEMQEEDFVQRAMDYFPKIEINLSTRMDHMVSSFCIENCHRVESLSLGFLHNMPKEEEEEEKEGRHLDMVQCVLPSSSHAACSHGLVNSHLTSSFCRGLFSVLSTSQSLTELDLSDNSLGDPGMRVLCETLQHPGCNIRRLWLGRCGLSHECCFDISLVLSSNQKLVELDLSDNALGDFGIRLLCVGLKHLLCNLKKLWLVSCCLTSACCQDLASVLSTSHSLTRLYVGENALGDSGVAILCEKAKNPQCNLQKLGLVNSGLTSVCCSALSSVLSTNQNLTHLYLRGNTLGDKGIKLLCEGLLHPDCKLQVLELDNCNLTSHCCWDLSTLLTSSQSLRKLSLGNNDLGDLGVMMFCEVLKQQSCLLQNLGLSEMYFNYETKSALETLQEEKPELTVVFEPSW
Type: cell-based
How it was run: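 THP-1 cells differentiated with 100 ng/mL PMA for 24 h, then given compound (7-point 3-fold series, 1:200 from DMSO) for 20 h in RPMI+5% FBS. NLRP3 activated with 2.5 μM nigericin for 3 h; secreted IL-1β measured by HTRF; IC50 from logistic fit of % inhibition.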
`Cc1ccc(-c2nnc(N[C@@H]3CCCC[C@H]3O)n3cncc23)c(CC(F)(F)F)c1` [Compound 286, (1R,2R)-2-({1-[4-methyl-2-(2,2,2-trifluoroethyl)phenyl]imidazo[1,5-d][1,2,4]triazin-4-yl}amino)cyclohexan-1-ol] was tested, and the pIC50 was 8.00 to 9.00.
Work on `O=C1NCCC1Nc1nnc(-c2ccc(Cl)cc2OC(F)(F)F)c2cncn12` (stereo not shown) [Compound 287, 3-({1-[4-chloro-2-(trifluoromethoxy)phenyl]imidazo[1,5-d][1,2,4]triazin-4-yl}amino)pyrrolidin-2-one] yielded a pIC50 of 8.00 to 9.00.
Work on `Cc1ccc(-c2nnc(NC3CCNC3=O)n3cncc23)c(CC(F)(F)F)c1` (stereo not shown) [Compound 288, 3-({1-[4-methyl-2-(2,2,2-trifluoroethyl)phenyl]imidazo[1,5-d][1,2,4]triazin-4-yl}amino)pyrrolidin-2-one] yielded a pIC50 of 8.00 to 9.00.
`CN1CC[C@@H](O)[C@@H](Nc2nnc(-c3ccc(C(F)(F)F)cc3CC(F)(F)F)c3cncn23)C1` [Compound 289, (3S,4R)-1-methyl-3-({1-[2-(2,2,2-trifluoroethyl)-4-(trifluoromethyl)phenyl]imidazo[1,5-d][1,2,4]triazin-4-yl}amino)piperidin-4-ol] was tested, and the pIC50 was 8.00 to 9.00.
Work on `O[C@H]1CCCC[C@@H]1Nc1nnc(-c2ccc(C(F)(F)F)cc2OC(F)(F)F)c2cncn12` [Compound 290] yielded a pIC50 of 7.00 to 8.00.
`COc1ccc(-c2nnc(N[C@H]3C[C@@H](CO)C3)n3cncc23)c(OC(F)(F)F)c1` [Compound 291, [(1s,3s)-3-({1-[4-methoxy-2-(trifluoromethoxy)phenyl]imidazo[1,5-d][1,2,4]triazin-4-yl}amino)cyclobutyl]methanol] gave a pIC50 of 8.00 to 9.00.
In the case of `COc1ccc(-c2nnc(N[C@@H]3CCOC[C@H]3O)n3cncc23)c(OC(F)(F)F)c1` [Compound 292, (3S,4R)-4-({1-[4-methoxy-2-(trifluoromethoxy)phenyl]imidazo[1,5-d][1,2,4]triazin-4-yl}amino)oxan-3-ol], the pIC50 was 7.00 to 8.00.
`O[C@H]1CCCC[C@@H]1Nc1nnc(-c2ccc(C(F)(F)F)cc2C(F)(F)F)c2cncn12` [Compound 293, (1S,2S)-2-({1-[2,4-bis(trifluoromethyl)phenyl]imidazo[1,5-d][1,2,4]triazin-4-yl}amino)cyclohexan-1-ol] showed a pIC50 of 7.00 to 8.00.
Work on `O=C1NCCC1Nc1nnc(-c2ccc(C(F)(F)F)cc2C(F)(F)F)c2cncn12` (stereo not shown) [Compound 294, 3-({1-[2,4-bis(trifluoromethyl)phenyl]imidazo[1,5-d][1,2,4]triazin-4-yl}amino)pyrrolidin-2-one] yielded a pIC50 of 8.00 to 9.00.
`CN1CCC[C@@H](Nc2nnc(-c3ccc(OC(F)F)cc3OC(F)(F)F)c3cncn23)C1` [Compound 295, 1-[4-(difluoromethoxy)-2-(trifluoromethoxy)phenyl]-N-[(3R)-1-methylpiperidin-3-yl]imidazo[1,5-d][1,2,4]triazin-4-amine] showed a pIC50 of over 9.00.
Compound `FC(F)Oc1ccc(-c2nnc(Nc3cc[nH]n3)n3cncc23)c(OC(F)(F)F)c1` [Compound 296, 1-[4-(difluoromethoxy)-2-(trifluoromethoxy)phenyl]-N-(1H-pyrazol-3-yl)imidazo[1,5-d][1,2,4]triazin-4-amine] has a pIC50 of 7.00 to 8.00.
In the case of `Cc1ccc(-c2nnc(NC(C)c3cccc(O)c3)n3cncc23)c(CC(F)(F)F)c1` (stereo not shown) [Compound 297, 3-[1-({1-[4-methyl-2-(2,2,2-trifluoroethyl)phenyl]imidazo[1,5-d][1,2,4]triazin-4-yl}amino)ethyl]phenol], the pIC50 was 8.00 to 9.00.
In the case of `C[C@]1(O)C[C@@H](Nc2nnc(-c3ccc(Cl)cc3C(F)(F)F)c3cncn23)C1` [Compound 298, (1s,3s)-3-({1-[4-chloro-2-(trifluoromethyl)phenyl]imidazo[1,5-d][1,2,4]triazin-4-yl}amino)-1-methylcyclobutan-1-ol], the pIC50 was 8.00 to 9.00.
`C[C@]1(O)C[C@@H](Nc2nnc(-c3ccc(Cl)cc3OC(F)(F)F)c3cncn23)C1` [Compound 299, (1s,3s)-3-({1-[4-chloro-2-(trifluoromethoxy)phenyl]imidazo[1,5-d][1,2,4]triazin-4-yl}amino)-1-methylcyclobutan-1-ol] gave a pIC50 of 8.00 to 9.00.
`O[C@@H]1CCCC[C@H]1Nc1nnc(-c2ccc(Cl)cc2OC(F)(F)F)c2cncn12` [Compound 300, (1R,2R)-2-({1-[4-chloro-2-(trifluoromethoxy)phenyl]imidazo[1,5-d][1,2,4]triazin-4-yl}amino)cyclohexan-1-ol] gave a pIC50 of 8.00 to 9.00.
In the case of `OCCN1CCC[C@@H](Nc2nnc(-c3ccc(C(F)(F)F)cc3CC(F)(F)F)c3cncn23)C1` [Compound 301], the pIC50 was over 9.00.
`COc1ccc(-c2nnc(N[C@@H]3CCC[C@H](O)C3)n3cncc23)c(CC(F)(F)F)c1` [Compound 302, (1S,3R)-3-({1-[4-methoxy-2-(2,2,2-trifluoroethyl)phenyl]imidazo[1,5-d][1,2,4]triazin-4-yl}amino)cyclohexan-1-ol] showed a pIC50 of 8.00 to 9.00.
In the case of `COc1ccc(-c2nnc(NC(C)c3cccc(O)c3)n3cncc23)c(CC(F)(F)F)c1` (stereo not shown) [Compound 303, 3-[1-({1-[4-methoxy-2-(2,2,2-trifluoroethyl)phenyl]imidazo[1,5-d][1,2,4]triazin-4-yl}amino)ethyl]phenol], the pIC50 was over 9.00.
`COc1ccc(-c2nnc(N[C@@H]3CCCN(C)C3)n3cncc23)c(OCC(F)(F)F)c1` [Compound 304, 1-[4-methoxy-2-(2,2,2-trifluoroethoxy)phenyl]-N-[(3R)-1-methylpiperidin-3-yl]imidazo[1,5-d][1,2,4]triazin-4-amine] gave a pIC50 of 8.00 to 9.00.
With `COc1ccc(-c2nnc(N[C@H]3C[C@@](C)(O)C3)n3cncc23)c(OCC(F)(F)F)c1` [Compound 305, (1s,3s)-3-({1-[4-methoxy-2-(2,2,2-trifluoroethoxy)phenyl]imidazo[1,5-d][1,2,4]triazin-4-yl}amino)-1-methylcyclobutan-1-ol] the pIC50 was 7.00 to 8.00.
`O[C@@H]1CCCC[C@H]1Nc1nnc(-c2ccc(Br)cc2OC(F)F)c2cncn12` [Compound 306, (1R,2R)-2-({1-[4-bromo-2-(difluoromethoxy)phenyl]imidazo[1,5-d][1,2,4]triazin-4-yl}amino)cyclohexan-1-ol] showed a pIC50 of 8.00 to 9.00.
Compound `O[C@@H]1CCCC[C@H]1Nc1nnc(-c2ccc(Br)cc2OC(F)(F)F)c2cncn12` [Compound 307, (1R,2R)-2-({1-[4-bromo-2-(trifluoromethoxy)phenyl]imidazo[1,5-d][1,2,4]triazin-4-yl}amino)cyclohexan-1-ol] has a pIC50 of 8.00 to 9.00.
`CN1CCC[C@@H](Nc2nnc(-c3ccc(Br)cc3OC(F)(F)F)c3cncn23)C1` [Compound 312, 1-[4-bromo-2-(trifluoromethoxy)phenyl]-N-[(3R)-1-methylpiperidin-3-yl]imidazo[1,5-d][1,2,4]triazin-4-amine] showed a pIC50 of over 9.00.
Compound `O[C@@H]1COCC[C@H]1Nc1nnc(-c2ccc(C(F)(F)F)cc2CC(F)(F)F)c2cncn12` [Compound 313, (3S,4R)-4-({1-[2-(2,2,2-trifluoroethyl)-4-(trifluoromethyl)phenyl]imidazo[1,5-d][1,2,4]triazin-4-yl}amino)oxan-3-ol] has a pIC50 of 8.00 to 9.00.
With `COc1ccc(-c2nnc(N[C@H]3C[C@@H](CO)C3)n3cncc23)c(CC(F)(F)F)c1` [Compound 314, [(1s,3s)-3-({1-[4-methoxy-2-(2,2,2-trifluoroethyl)phenyl]imidazo[1,5-d][1,2,4]triazin-4-yl}amino)cyclobutyl]methanol] the pIC50 was 8.00 to 9.00.
`COc1ccc(-c2nnc(N[C@H]3C[C@@](C)(O)C3)n3cncc23)c(C(F)(F)C(F)(F)F)c1` [Compound 315, (1s,3s)-3-({1-[4-methoxy-2-(pentafluoroethyl)phenyl]imidazo[1,5-d][1,2,4]triazin-4-yl}amino)-1-methylcyclobutan-1-ol] was tested, and the pIC50 was 6.52 to 7.00.
In the case of `COc1ccc(-c2nnc(N[C@@H]3CCCC[C@H]3O)n3cncc23)c(C(F)(F)C(F)(F)F)c1` [Compound 316, (1R,2R)-2-({1-[4-methoxy-2-(pentafluoroethyl)phenyl]imidazo[1,5-d][1,2,4]triazin-4-yl}amino)cyclohexan-1-ol], the pIC50 was 7.00 to 8.00.
For `Cc1ccc(-c2nnc(N[C@@H]3CCCN(C)C3)n3cncc23)c(CC(F)(F)F)c1` [Compound 317, N-[(3R)-1-methylpiperidin-3-yl]-1-[4-methyl-2-(2,2,2-trifluoroethyl)phenyl]imidazo[1,5-d][1,2,4]triazin-4-amine], the pIC50 was 8.00 to 9.00.
`Cc1ccc(-c2nnc(N[C@H]3C[C@@](C)(O)C3)n3cncc23)c(CC(F)(F)F)c1` [Compound 318, (1s,3s)-1-methyl-3-({1-[4-methyl-2-(2,2,2-trifluoroethyl)phenyl]imidazo[1,5-d][1,2,4]triazin-4-yl}amino)cyclobutan-1-ol] showed a pIC50 of 8.00 to 9.00.
With `COc1ccc(-c2nnc(N[C@H]3C[C@@](C)(O)C3)n3cncc23)c(C2CC2)c1` [Compound 319, (1s,3s)-3-{[1-(2-cyclopropyl-4-methoxyphenyl)imidazo[1,5-d][1,2,4]triazin-4-yl]amino}-1-methylcyclobutan-1-ol] the pIC50 was 7.00 to 8.00.
`COc1ccc(-c2nnc(NC3CCNC3=O)n3cncc23)c(C2CC2)c1` (stereo not shown) [Compound 320, 3-{[1-(2-cyclopropyl-4-methoxyphenyl)imidazo[1,5-d][1,2,4]triazin-4-yl]amino}pyrrolidin-2-one] gave a pIC50 of 7.00 to 8.00.
For `COc1ccc(-c2nnc(N[C@@H]3CCCC[C@H]3O)n3cncc23)c(C2CC2)c1` [Compound 321, (1R,2R)-2-{[1-(2-cyclopropyl-4-methoxyphenyl)imidazo[1,5-d][1,2,4]triazin-4-yl]amino}cyclohexan-1-ol], the pIC50 was 7.00 to 8.00.
`O[C@@H]1COCC[C@H]1Nc1nnc(-c2ccc(C(F)(F)F)cc2OC(F)(F)F)c2cncn12` [Compound 322, (3S,4R)-4-({1-[2-(trifluoromethoxy)-4-(trifluoromethyl)phenyl]imidazo[1,5-d][1,2,4]triazin-4-yl}amino)oxan-3-ol] was tested, and the pIC50 was 7.00 to 8.00.
Compound `CC(Nc1nnc(-c2ccc(C(F)(F)F)cc2OC(F)(F)F)c2cncn12)c1cccc(O)c1` (stereo not shown) [Compound 323, 3-[1-({1-[2-(trifluoromethoxy)-4-(trifluoromethyl)phenyl]imidazo[1,5-d][1,2,4]triazin-4-yl}amino)ethyl]phenol] has a pIC50 of 8.00 to 9.00.
